Measurements reported in patent US20230364057A1, “BACTERIAL DNA GYRASE INHIBITORS AND METHODS OF USE THEREOF” (THE FLORIDA INTERNATIONAL UNIVERSITY BOARD OF TRUSTEES, priority 2022, published 2023).
Values after ≈ are worked out from the molar mass of the structure shown. Values joined by “and” are separate entries in the source; they are usually repeats but may differ in a detail not shown here. Equal entries are not always repeated. Where two headings read alike, the source gives them in different places.

Tests used:
Mtb DNA gyrase = Mtb DNA gyrase (Mycobacterium tuberculosis (strain ATCC 25618 / H37Rv), UniProt P9WG45+P9WG47); test: Mtb DNA gyrase inhibition assay (gel-based); format: biochemical; conditions: Table 10; read-out: IC50 (µM) Mtb gyrase
Experimental: The IC50 against E. coli (A) and Mtb (C) gyrase were determined using the gel-based gyrase inhibition assays. The gyrase mediated DNA cleavage assays (B and D) were performed using pBR322. (A) 229 inhibits E. coli gyrase. Lane 1, rx pAB1. […] Lane 1, rx pAB1. […] 100 µM of CPDs were used. Symbols rx, nk, In, and sc represent relaxed, nicked, linear, and supercoiled DNA, respectively.
Agarose gel-based DNA gyrase inhibition assays were performed in 30 µL of 1 ×gyrase buffer (35 mM Tris-HCl, 24 mM KCl, 4 mM MgCl2, 2 mM DTT, 1.75 mM ATP, 0.1 mg/mL BSA, 6.5% glycerol, pH7.5) containing 400 ng of rx pAB1 at 37° C. 100 ng of DNA gyrase was used to supercoil the rx pAB1 in the presence of different concentrations of a gyrase inhibitor. After 15 minutes of incubation with the inhibitor at 37° C., all reactions were stopped with 1 µL of stop solution (3% SDS and 250 mM EDTA). Samples were analyzed by electrophoresis in 1% w/v agarose gels followed by ethidium bromide staining and photographed under UV light.

Mtb = Mtb whole cell assay (% inhibition, MIC); format: cell-based, Mycobacterium tuberculosis; conditions: Mycobacterium tuberculosis
M. abscessus = test: MIC against M. abscessus; format: cell-based, Mycobacterium abscessus; conditions: Mycobacteroides abscessus
in vitro = conditions: human
E. coli (ATCC 25922) = test: Minimum inhibitory concentration, broth microdilution; conditions: Escherichia coli
S. aureus (ATCC 14775) = test: as above; conditions: Staphylococcus aureus
E. coli DNA gyrase [1] = molecular target: T1, E. coli DNA gyrase (Escherichia coli (strain K12), UniProt P0AES4+P0AES6); test: Agarose gel-based DNA gyrase inhibition assay; format: biochemical; conditions: Table 8; read-out: IC50 Gyrase Gel-based
Experimental: 100 ng of DNA gyrase was used to supercoil the rx pAB1 in the presence of different concentrations of a gyrase inhibitor. […] Samples were analyzed by electrophoresis in 1% w/v agarose gels followed by ethidium bromide staining and photographed under UV light.

E. coli DNA gyrase [2] = molecular target: T1, E. coli DNA gyrase; test: SDFQ-based DNA gyrase inhibition assay; format: biochemical; conditions: Table 8; read-out: IC50 Gyrase SDFQ
Experimental: 100 ng of DNA gyrase was used to supercoil the rx pAB1_FL905 in the presence of different concentrations of a gyrase inhibitor. […] The IC50 values were estimated by nonlinear fitting of the following equation: […]
where F is the fluorescence intensity at the x concentration of an min inhibitor. Fmax and Fmin are the maximum and minimum fluorescence of the DNA sample, respectively. P is a slope parameter.

[3] = molecular target: T2, E. coli DNA topoisomerase IV (Escherichia coli (strain K12), UniProt P0AFI2+P20083); test: E. coli DNA topoisomerase IV relaxation assay (gel-based); format: biochemical; conditions: for IC50: IC50 Topoisomerase IV Gel-based, Table 8
Experimental: (§1) Relaxation assays by E. coli DNA topoisomerase IV and the ATPase assays were performed. […] Lane 1 is supercoiled plasmid pAB1. […] The supercoiled, fluorescently-labeled plasmid pAB1_FL905 was used.

[4] = molecular target: T2, E. coli DNA topoisomerase IV; test: SDFQ-based DNA relaxation assay with E. coli DNA topoisomerase IV; format: biochemical
Experimental: as §1

E. coli imp = test: microbe, parasite or virus in culture; conditions: Escherichia coli, read-out: MIC E. coli imp BAS3023
Experimental: (§2) Antibacterial minimum inhibitory concentrations (MICs) were obtained from three independent experiments using broth microdilution methods in 96-well plates according to Clinical and Laboratory Standards Institute guidelines. Cells were culture from singles colonies in MHIIB medium for 24 h at 37° C. in agitation (200 RPM). The cultures were then diluted using the same media to reach an OD600 of 0.1. Then, 50 µL of the diluted cultures were added to the plates holding 50 µL of serially diluted compounds in MHIIB. The plates were incubated at 37° C. for 20 h. The starting inoculum was fixated to 10^5 colony-forming units per ml.

MRSA = test: Minimum inhibitory concentration, broth microdilution; conditions: Staphylococcus aureus
Experimental: as §2

B. subtilis (ATCC 6633) = test: as above; conditions: Bacillus subtilis, ATCC6633, read-out: MIC B. subtilis ATCC 6633
[5] = ATCC25922, read-out: MIC (µM) Ec, E. coli strain ATCC25922
[6] = ATCC14775, read-out: MIC (µM) Sa
[7] = ATCC25922, read-out: MIC E coli ATCC 25922, Table 9
[8] = ATCC14775, read-out: MIC S. aureus ATCC 14775
[9] = ATCC33591 / MRSA, read-out: MIC MRSA ATCC 33591

T2 sequence (P0AFI2 whole entry, looked up): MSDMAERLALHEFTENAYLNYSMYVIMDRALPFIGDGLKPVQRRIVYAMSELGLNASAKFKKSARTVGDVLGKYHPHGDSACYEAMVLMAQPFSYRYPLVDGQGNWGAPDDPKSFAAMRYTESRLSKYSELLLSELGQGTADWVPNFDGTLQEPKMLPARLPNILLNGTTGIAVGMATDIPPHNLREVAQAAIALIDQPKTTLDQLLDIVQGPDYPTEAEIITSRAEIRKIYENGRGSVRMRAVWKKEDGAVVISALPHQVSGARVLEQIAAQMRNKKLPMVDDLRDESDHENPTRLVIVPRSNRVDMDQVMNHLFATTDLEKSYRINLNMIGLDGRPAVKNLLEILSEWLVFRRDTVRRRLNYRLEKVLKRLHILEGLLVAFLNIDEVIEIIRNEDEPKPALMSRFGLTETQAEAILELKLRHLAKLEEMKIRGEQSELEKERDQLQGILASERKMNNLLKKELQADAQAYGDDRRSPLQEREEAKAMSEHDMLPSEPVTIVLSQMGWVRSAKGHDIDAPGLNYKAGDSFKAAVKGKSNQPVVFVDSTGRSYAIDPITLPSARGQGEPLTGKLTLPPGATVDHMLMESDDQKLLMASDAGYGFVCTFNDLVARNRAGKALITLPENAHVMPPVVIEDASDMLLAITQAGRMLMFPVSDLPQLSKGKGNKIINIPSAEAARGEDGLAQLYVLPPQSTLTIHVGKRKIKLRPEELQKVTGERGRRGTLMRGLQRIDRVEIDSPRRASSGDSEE
T2 sequence (P20083 whole entry, looked up): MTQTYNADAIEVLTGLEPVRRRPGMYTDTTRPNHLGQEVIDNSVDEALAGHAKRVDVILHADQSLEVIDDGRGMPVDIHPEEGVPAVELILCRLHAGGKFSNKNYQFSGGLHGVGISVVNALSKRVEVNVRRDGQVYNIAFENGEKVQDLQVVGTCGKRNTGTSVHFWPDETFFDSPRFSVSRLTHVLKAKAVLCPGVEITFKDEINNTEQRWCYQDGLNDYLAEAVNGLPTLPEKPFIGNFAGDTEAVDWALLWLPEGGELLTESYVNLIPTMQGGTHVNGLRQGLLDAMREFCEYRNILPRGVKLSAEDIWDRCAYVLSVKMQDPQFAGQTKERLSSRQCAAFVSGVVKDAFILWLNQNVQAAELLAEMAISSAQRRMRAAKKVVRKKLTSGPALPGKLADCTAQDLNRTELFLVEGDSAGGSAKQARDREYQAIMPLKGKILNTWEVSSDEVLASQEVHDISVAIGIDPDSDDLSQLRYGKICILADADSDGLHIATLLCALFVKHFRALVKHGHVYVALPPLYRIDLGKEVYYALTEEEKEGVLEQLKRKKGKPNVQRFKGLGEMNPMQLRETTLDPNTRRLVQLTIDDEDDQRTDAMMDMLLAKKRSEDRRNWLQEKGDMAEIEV

Structure (SMILES) | IC50 (Mtb DNA gyrase) | MIC (Mtb) | MIC (M. abscessus) | IC50 (in vitro) | MIC (E. coli (ATCC 25922); [5]) | MIC (S. aureus (ATCC 14775); [6]) | IC50 (E. coli DNA gyrase [1]) | IC50 (E. coli DNA gyrase [2]) | inhibition of E. coli DNA topoisomerase IV [3] | IC50 [3] | IC50 [4] | MIC (E. coli imp) | MIC (E. coli (ATCC 25922); [7]) | MIC (S. aureus (ATCC 14775); [8]) | MIC (MRSA; [9]) | MIC (B. subtilis (ATCC 6633)) | MIC (E. coli (ATCC 25922); ATCC25922, read-out: MIC E. coli ATCC 25922, Table 7) | MIC (MRSA; ATCCBAA44 / MRSA, read-out: MIC S. aureus (MRSA) ATCC BAA44)
C[n+]1c(-c2ccc(/C=N/NC(=O)c3cccc(C(=O)N/N=C/c4ccc(-c5cn6ccccc6[n+]5C)cc4)c3)cc2)cn2ccccc21 [Compound 259] | 2.6 µM | > 200 µM | > 200 µM | > 200 µM | > 200 µM | 200 µM |  |  |  |  |  |  |  |  |  |  |  | 
C[n+]1c(-c2ccc(/C=N/NC(=O)c3cncc(C(=O)N/N=C/c4ccc(-c5cn6ccccc6[n+]5C)cc4)c3)cc2)cn2ccccc21 [Compound 260] | 92 µM | > 200 µM | > 200 µM | > 200 µM | > 200 µM | > 200 µM |  |  |  |  |  |  |  |  |  |  |  | 
CCCCSc1ccn2cc(-c3ccc(/C=N/NC(=O)c4ccc(C(=O)N/N=C/c5ccc(-c6cn7ccc(SCCCC)cc7[n+]6C)cc5)cc4)cc3)[n+](C)c2c1 [Compound 262] | 118 µM | 122 µM | > 200 µM | > 200 µM | > 200 µM | > 200 µM |  |  |  |  |  |  |  |  |  |  |  | 
C[n+]1c(-c2ccc(/C=N/NC(=O)c3ccc(C(=O)N/N=C/c4ccc(-c5cn6ccccc6[n+]5C)cc4)nc3)cc2)cn2ccccc21 [Compound 264] | 2.1 µM | 6.2 µM | 13.5 µM | > 200 µM |  | 100 µM |  |  |  |  |  |  |  |  |  |  |  | 
CCCCCCCCCCCCOC(=O)c1cc(O)c(O)c(O)c1 [Dodecyl gallate, dodecyl gallate] |  |  |  |  |  |  | 15 µM | 13.8 µM | strongly inhibit | 50 µM | 36.9 µM | 200 µM (≈ 67.7 µg/mL) | > 200 µM | 67.7 µg/mL and 200 µM | 200 µM | 8 µg/mL and 25 µM to 50 µM |  | 
CO[C@@H]1[C@@H](OC(N)=O)[C@@H](O)[C@H](Oc2ccc3c(O)c(NC(=O)c4ccc(O)c(CC=C(C)C)c4)c(=O)oc3c2C)OC1(C)C [Novobiocin, novobiocin, reference compound] |  |  |  |  |  |  |  |  |  |  |  | 6.25 µM (≈ 3.83 µg/mL) | 158 µM | < 6.25 µM | < 6.25 µM | < 625 µM |  | 
CCCCCCCCOC(=O)c1cc(O)c(O)c(O)c1 [Octyl gallate, octyl gallate] |  |  |  |  |  |  | 50 µM | 26 µM | strongly inhibit | 50 µM | 41.2 µM | 50 µM (≈ 14.1 µg/mL) | > 200 µM | 56.5 µg/mL and 200 µM | 100 µM | 4 µg/mL and 12.5 µM to 25 µM | 226 µg/mL | 56.5 µg/mL
